The source made the active and inactive calls.
How the values were obtained:
[1] = biological target: Cyclin-dependent kinase 5/CDK5 activator 1 (Homo sapiens, UniProt Q00535); experiment: blockade of human CDK5 activity – biochemical, cherry-picked samples, set 2, dose response (AID 504545)
[2] = Counterscreen for AddAB inhibitors: absorbance-based bacterial cell-based high throughput dose response assay for inhibitors of bacterial viability. [Related pubchem assays (depositor defined):AID435030, AID449728, AID449731, AID488942, AID488955, AID488956]; format: functional
Exodeoxyribonuclease V = Exodeoxyribonuclease V (Escherichia coli (strain K12), UniProt P04993+P07648+P08394); experiment: RecBCD inhibition via phage-restricted bacterial growth – absorbance, V66 E. coli, mutant T4 phage, counter-screen for AddAB inhibitor project, dose response (AID 492957); format: functional, cell-based, Escherichia coli str. K-12 substr. MG1655
Exodeoxyribonuclease V, sequence (P04993 whole entry): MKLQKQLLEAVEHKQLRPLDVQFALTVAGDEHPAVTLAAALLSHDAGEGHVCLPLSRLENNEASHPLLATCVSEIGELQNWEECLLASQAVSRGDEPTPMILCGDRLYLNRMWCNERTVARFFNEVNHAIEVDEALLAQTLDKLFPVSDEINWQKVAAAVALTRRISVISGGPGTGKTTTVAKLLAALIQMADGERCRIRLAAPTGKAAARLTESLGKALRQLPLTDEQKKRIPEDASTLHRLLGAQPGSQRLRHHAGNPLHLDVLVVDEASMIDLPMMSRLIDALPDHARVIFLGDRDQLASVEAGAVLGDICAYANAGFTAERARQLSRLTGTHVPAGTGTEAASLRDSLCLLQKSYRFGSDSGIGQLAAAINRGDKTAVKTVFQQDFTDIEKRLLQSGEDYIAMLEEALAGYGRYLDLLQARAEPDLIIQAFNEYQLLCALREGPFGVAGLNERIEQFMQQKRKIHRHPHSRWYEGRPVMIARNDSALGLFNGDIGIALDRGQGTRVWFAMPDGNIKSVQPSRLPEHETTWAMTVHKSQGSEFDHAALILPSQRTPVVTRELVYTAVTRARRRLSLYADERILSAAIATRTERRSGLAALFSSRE
Exodeoxyribonuclease V, sequence (P07648 whole entry): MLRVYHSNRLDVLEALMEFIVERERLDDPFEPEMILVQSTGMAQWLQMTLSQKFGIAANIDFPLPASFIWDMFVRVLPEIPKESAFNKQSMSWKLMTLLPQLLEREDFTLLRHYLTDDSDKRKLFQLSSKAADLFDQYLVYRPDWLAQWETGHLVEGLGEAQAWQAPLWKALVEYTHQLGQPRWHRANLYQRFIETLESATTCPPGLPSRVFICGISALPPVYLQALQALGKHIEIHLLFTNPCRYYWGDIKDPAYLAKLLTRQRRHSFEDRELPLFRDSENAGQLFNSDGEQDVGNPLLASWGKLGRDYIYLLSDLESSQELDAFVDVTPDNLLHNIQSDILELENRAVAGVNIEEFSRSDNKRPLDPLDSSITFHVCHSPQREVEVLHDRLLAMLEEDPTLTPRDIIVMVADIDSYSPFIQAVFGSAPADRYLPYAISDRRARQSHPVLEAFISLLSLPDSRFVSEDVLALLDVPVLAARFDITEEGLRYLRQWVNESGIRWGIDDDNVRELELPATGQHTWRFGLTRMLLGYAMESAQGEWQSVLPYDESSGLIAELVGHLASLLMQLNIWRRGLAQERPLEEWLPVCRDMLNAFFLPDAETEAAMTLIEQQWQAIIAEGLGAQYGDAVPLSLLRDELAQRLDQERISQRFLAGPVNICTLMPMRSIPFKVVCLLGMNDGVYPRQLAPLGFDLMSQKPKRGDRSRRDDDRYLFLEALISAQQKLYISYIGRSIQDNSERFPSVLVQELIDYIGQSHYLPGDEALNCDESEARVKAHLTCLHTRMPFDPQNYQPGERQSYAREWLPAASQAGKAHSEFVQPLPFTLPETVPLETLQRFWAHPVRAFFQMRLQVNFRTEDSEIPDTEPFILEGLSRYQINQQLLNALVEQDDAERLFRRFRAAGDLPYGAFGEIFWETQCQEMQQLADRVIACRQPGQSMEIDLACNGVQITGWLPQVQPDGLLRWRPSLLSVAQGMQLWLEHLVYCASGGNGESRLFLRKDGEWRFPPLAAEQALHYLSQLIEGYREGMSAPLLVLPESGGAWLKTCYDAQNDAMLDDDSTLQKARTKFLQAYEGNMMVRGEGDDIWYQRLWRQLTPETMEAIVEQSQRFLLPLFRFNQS
Exodeoxyribonuclease V, sequence (P08394 whole entry): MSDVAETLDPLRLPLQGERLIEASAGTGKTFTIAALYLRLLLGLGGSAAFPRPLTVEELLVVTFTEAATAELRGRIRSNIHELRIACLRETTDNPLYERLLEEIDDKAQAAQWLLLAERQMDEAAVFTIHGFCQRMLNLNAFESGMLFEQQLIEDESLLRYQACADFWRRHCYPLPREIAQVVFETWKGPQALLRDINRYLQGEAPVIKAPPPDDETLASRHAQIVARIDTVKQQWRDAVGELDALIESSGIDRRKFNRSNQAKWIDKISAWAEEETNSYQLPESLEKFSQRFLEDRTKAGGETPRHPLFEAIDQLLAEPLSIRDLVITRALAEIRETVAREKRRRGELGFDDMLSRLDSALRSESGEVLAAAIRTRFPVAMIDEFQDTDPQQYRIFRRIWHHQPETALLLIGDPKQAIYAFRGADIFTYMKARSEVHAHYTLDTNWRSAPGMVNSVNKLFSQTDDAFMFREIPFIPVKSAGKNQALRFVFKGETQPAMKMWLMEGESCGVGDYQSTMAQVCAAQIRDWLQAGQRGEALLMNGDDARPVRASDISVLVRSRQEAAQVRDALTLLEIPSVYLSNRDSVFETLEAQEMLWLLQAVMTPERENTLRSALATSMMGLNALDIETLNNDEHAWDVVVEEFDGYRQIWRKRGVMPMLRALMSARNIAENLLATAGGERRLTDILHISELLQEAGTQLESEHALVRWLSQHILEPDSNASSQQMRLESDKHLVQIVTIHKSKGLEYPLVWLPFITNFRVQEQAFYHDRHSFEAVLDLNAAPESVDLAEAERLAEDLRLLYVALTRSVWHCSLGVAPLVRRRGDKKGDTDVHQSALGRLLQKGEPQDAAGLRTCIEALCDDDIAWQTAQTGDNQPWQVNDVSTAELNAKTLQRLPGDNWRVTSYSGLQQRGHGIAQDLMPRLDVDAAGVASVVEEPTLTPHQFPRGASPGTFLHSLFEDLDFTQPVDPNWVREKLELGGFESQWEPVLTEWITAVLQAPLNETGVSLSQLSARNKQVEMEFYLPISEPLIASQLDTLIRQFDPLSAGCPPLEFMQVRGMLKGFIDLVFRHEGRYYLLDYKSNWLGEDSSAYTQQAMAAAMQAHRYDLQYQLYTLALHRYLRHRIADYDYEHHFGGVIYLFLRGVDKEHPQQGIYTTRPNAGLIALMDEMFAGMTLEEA

[3] = biological target: Scavenger receptor class B member 1 (Mus musculus, UniProt Q61009); experiment: mouse SR-BI DiI-HDL uptake blockers – ldlA[mSR-BI] cells, fluorescence, cherry pick, dose response (AID 493194); format: functional, cell-based;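 further: cellular uptake of fluorescent DiI-labeled HDL measured as cell fluorescence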
Scavenger receptor class B member 1, sequence (Q61009 whole entry): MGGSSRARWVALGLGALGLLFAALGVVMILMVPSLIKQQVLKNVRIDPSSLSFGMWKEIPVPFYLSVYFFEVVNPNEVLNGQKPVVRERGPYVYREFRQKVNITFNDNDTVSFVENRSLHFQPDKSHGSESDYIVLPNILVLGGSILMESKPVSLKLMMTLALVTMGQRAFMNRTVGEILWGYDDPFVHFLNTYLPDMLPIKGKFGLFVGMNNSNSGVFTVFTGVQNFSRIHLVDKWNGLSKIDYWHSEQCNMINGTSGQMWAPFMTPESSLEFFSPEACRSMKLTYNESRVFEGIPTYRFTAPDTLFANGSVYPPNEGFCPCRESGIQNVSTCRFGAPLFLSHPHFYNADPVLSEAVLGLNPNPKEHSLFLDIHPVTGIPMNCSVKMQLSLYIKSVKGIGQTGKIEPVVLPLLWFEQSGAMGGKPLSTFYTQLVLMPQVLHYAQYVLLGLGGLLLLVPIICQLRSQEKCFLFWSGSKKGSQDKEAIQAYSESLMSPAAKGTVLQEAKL

HEK293 [4] = experiment: inhibition of NOD1-driven NF-kB reporter – cell-based, luminescence, uHTS, primary screen (AID 1578); format: functional; details: Homo sapiens
Streptokinase A = biological target: T1, Streptokinase A (Streptococcus pyogenes serotype M1, UniProt P10520); experiment: viability-normalized secreted streptokinase activity reduction – plasminogen activation absorbance, OD405, dose response (AID 1914); format: functional, Streptococcus pyogenes M1 GAS;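 further: secreted streptokinase activity via plasminogen activation per viability signal from cell pellet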
T1 sequence (P10520 whole entry): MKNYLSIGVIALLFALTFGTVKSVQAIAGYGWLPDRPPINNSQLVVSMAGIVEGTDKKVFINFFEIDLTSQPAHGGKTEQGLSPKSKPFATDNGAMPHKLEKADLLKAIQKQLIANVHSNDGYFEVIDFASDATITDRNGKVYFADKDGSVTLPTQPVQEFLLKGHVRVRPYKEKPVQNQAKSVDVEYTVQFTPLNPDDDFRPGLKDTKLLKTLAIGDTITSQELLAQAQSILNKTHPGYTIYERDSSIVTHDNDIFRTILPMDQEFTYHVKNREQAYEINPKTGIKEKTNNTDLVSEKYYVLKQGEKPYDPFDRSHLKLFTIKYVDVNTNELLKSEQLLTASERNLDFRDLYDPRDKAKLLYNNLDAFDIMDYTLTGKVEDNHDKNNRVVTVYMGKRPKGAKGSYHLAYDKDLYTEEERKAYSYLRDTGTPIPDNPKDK

[5] = system: Streptococcus sp. 'group A'; experiment: Streptococcus pyogenes SK(-)GAS viability under kanamycin – luminescence, BacTiterGlo, confirmation, counter-screen for streptokinase expression inhibitor project, dose response (AID 1900); format: functional, organism-based
Streptococcus = experiment: GAS UMAA2166 growth inhibition – luminescence, BacTiterGlo, counter-screen for streptokinase expression inhibitor project, dose response (AID 1915); format: functional, organism-based;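 further: potency for reduction of bacterial viability or growth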
HEK293 [6] = experiment: cells; format: functional, cell-based; details: Homo sapiens
HEK293 [7] = experiment: NOD2 signaling inhibitors in MDP-stimulated cells, cell-based, uHTS, luminescence (AID 2001); format: functional; details: Homo sapiens
INS1 = experiment: INS-1E survival protection against cytokine death – cell-based, luminescence, retest, dose response (AID 449756); format: functional; details: Rattus norvegicus;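 further: cell death triggered by IL-1 beta plus TNF-alpha plus IFN-gamma mixture; protective hits raise ATP signal compared with cytokine alone wells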
HEK293 [8] = experiment: cells; format: functional, cell-based; details: Homo sapiens; remark: listed apart in the source
[9] = luciferase reporter signal reduction – luminescence, H4-C neuroglioblastoma cells, dose response (AID 2458); format: functional, cell-based;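 further: H4 neuroglioblastoma cells stably carrying a luciferase reporter gene fusion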
[10] = alpha-synuclein stem-loop luciferase translation blockers – H4 neuroglioma cells, luminescence, confirmation (AID 1988); format: functional, cell-based
[11] = biological target: Intestinal-type alkaline phosphatase (Mus musculus, UniProt P24822); experiment: PubChem AID 488874; format: functional
[12] = biological target: T2, Alkaline phosphatase, tissue-nonspecific isozyme (Homo sapiens, UniProt P05186); experiment: activation of tissue-nonspecific alkaline phosphatase – biochemical, TNAP isozyme, human IAP uHTS hits, selectivity assay for human IAP activator project, dose response (AID 488886); format: functional;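 further: potency of compounds raising TNAP activity as a selectivity check on IAP activators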
T2 sequence (P05186 whole entry): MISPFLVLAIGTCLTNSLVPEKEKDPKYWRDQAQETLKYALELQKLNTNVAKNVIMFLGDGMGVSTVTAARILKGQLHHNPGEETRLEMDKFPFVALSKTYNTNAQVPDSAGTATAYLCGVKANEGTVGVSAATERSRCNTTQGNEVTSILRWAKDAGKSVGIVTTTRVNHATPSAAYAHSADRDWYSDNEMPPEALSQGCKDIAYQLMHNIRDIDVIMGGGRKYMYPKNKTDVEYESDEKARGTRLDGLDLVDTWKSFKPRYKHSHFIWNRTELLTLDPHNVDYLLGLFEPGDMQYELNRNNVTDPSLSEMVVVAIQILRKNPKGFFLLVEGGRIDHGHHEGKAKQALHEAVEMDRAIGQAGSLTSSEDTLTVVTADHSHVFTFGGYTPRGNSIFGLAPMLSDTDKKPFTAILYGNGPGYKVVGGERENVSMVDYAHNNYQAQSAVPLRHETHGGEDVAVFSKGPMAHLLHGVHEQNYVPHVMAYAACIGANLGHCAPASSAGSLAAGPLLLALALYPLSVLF

cells = format: functional, cell-based
[13] = biological target: T3, Intestinal-type alkaline phosphatase (Homo sapiens, UniProt P09923); experiment: human intestinal alkaline phosphatase activators, dose response, biochemical, luminescence, uHTS hits (AID 463120); format: functional
T3 sequence (P09923 whole entry): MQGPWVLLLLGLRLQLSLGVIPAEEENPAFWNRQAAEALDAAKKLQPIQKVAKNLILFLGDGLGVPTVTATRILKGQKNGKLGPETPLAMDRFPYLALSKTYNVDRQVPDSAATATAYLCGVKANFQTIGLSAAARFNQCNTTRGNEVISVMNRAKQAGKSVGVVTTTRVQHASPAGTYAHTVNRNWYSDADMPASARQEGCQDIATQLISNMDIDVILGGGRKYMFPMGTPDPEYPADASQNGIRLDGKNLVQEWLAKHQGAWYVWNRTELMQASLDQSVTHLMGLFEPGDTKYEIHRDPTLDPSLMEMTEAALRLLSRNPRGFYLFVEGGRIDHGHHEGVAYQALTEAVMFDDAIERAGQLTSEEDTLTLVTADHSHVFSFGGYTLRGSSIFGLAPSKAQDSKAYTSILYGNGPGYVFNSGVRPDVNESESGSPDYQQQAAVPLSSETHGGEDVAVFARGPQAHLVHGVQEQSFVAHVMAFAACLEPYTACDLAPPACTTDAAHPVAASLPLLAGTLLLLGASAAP

[14] = biological target: T3, Intestinal-type alkaline phosphatase; experiment: activation of human intestinal alkaline phosphatase – biochemical, luminescent, uHTS hits, set 2, dose response (AID 488817); format: functional;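 further: potency of activators that raise enzyme activity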
[15] = HEK-293T viability loss after treatment – luminescence, T-cell screen hits, cytotoxicity control for TCR NF-kB inhibitor project, dose response (AID 489026); format: functional, cell-based;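 further: cells exposed to compound about 14 hours before the viability readout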
[16] = alpha-synuclein stem-loop translation blockers – luminescence, H4 neuroglioblastoma cells, dose confirmation, confirmation (AID 2454); format: functional, cell-based;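 further: H4 neuroglioblastoma cells carrying an alpha-synuclein 5'UTR luciferase reporter; potency for inhibition of the luciferase signal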

Cyclin-dependent kinase 5/CDK5 activator 1, sequence (Q00535 whole entry): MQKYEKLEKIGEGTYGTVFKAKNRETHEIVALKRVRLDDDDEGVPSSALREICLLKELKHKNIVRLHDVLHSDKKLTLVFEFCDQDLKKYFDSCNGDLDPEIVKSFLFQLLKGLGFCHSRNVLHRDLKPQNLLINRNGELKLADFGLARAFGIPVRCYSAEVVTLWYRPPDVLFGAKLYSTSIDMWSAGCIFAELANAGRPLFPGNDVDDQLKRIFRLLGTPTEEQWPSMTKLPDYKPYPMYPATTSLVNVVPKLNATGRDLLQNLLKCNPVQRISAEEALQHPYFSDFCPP
Cyclin-dependent kinase 5/CDK5 activator 1, sequence (Q15078 whole entry, further chain): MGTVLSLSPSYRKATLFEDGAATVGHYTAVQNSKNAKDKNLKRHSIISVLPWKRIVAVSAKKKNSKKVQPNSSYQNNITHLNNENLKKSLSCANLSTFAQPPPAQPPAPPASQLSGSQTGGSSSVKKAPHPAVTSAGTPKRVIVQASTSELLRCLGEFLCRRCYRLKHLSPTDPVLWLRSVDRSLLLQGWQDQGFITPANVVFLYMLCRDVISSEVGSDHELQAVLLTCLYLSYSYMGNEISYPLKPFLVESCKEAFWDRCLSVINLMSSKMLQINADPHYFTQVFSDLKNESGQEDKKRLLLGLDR

Cc1nn(-c2nccs2)c2c1C(=O)CC(C)(C)C2Br (configuration not stated)
active: AC50 [1] 7.37 µM

CCOC(=O)c1cn(CC)c2cc(N3CCSCC3)c(F)cc2c1=O
inactive: IC50 [2] 63.8 µM | IC50 (Exodeoxyribonuclease V) > 119 µM

COc1ccccc1Nc1nc(-c2c(C)[nH]c3ccccc23)cs1
active: AC50 [3] 19.4 µM

C=CCSc1nsc(NC(=O)Nc2ccc(F)cc2)n1
inactive: IC50 [2] > 119 µM | IC50 (Exodeoxyribonuclease V) > 119 µM
active: EC50 (HEK293 [4]) 3.56 µM | EC50 (Streptokinase A) 23.4 µM | EC50 [5] 8.13 µM | EC50 (Streptococcus) 30.4 µM | IC50 (HEK293 [6]) 2.64 µM | IC50 (HEK293 [7]) 2.93 µM | AC50 (INS1) 3.1 µM | IC50 (HEK293 [8]) 10.1 µM

Cc1c(C(=O)N/N=C/c2c(O)ccc3ccccc23)nnn1-c1nonc1N
> 150 µM (not active): EC50 (Streptokinase A) | EC50 (Streptococcus)
active: EC50 [9] 0.898 µM | EC50 [10] < 0.1 µM | IC50 [11] 95.2 µM | EC50 [12] 8.59 µM | EC50 (cells) 0.958 µM | EC50 [5] 5.56 µM | EC50 [13] 7.47 µM | EC50 [14] 8.92 µM | EC50 [16] 0.953 µM | AC50 (INS1) 0.317 µM
inactive: IC50 [15] > 80 µM

From ChEMBL document CHEMBL1201862, “PubChem BioAssay data set” (2004)
